Laboratory results: patent publication US20140113931A1, “SUBSTITUTED PICOLINAMIDE KINASE INHIBITORS” (Portola Pharmaceuticals, Inc., priority 2012, published 2014)

What follows are compounds tested against T1, full length active recombinant SYK enzyme (Homo sapiens, UniProt P43405) (assay: Inhibition of Syk tyrosine phosphorylation activity (LANCE TR-FRET kinase assay)). Details: 1 nM active SYK enzyme, 550 nM SYK-substrate, 100 μM ATP, 1 hour at room temperature.
T1 construct: full length active recombinant SYK enzyme (Millipore, CA); purchased Millipore, CA
Type: biochemical
Procedure: The in vitro and in vivo human Syk activities of the inventive compounds can be determined by various procedures known in the art, such as a test for their ability to inhibit the activity of human plasma Syk. […] The IC50 value is the concentration (in nM) of the compound required to provide 50% inhibition of human Syk proteolytic activity.
An in vitro assay for detecting and measuring inhibition activity against Syk is as follows:
SYK tyrosine phosphorylation activity is measured using the LANCE™ Technology developed by Perkin Elmer Life and Analytical Sciences (Boston, Mass.). LANCE™ refers to homogeneous time resolved fluorometry applications using techniques such as time-resolved fluorescence resonance energy transfer assay (TR-FRET) (see generally for procedures in Perkin Elmer Application Note—How to Optimize a Tyrosine Kinase Assay Using Time Resolved Fluorescence-Based LANCE Detection, wwww.perkinelmer.com/lifesciences). The assay principle involves detection of a phosphorylated substrate using energy transfer from a phosphospecific europium-labeled antibody to streptavidin-allophycocyanin as an acceptor.
Molecules are reconstituted in 30% DMSO and serially diluted 1:3 with the final dilution containing DMSO in the absence of the candidate molecule. The final DMSO concentration in the assay is 3%. Kinase assays are performed as a two part reaction. The first reaction is a kinase reaction and which comprises of a candidate molecule, full length active recombinant SYK enzyme (Millipore, CA) and biotin-labeled SYK-specific substrate biotin-DEEDYESP-OH. The second reaction involves termination of the kinase reaction and the simultaneous addition of the detection reagents-europium-labeled anti-phosphotyrosine reagent (Eu-W1024-PY100, Perkin Elmer, Boston, Mass.) and Streptavidin-Allophycocyanin detection reagent (SA-APC, Prozyme, CA). The kinase reaction is performed in a black U-bottom 96-well microtitre plate. The final reaction volume is 50 μL and contains a final concentration of 1 nM active SYK enzyme, 550 nM SYK-substrate, and 100 μM ATP diluted in a buffer containing 50 mM Tris pH 7.5, 5 mM MgCl2, and 1 mM DTT. The reaction is allowed to proceed for 1 hour at room temperature. The quench buffer contains 100 mM Tris pH 7.5, 300 mM NaCl2, 20 mM EDTA, 0.02% Brij35, and 0.5% BSA. The detection reagents are added to the reaction mixture at the following dilutions-1:500 for Eu-W1024-PY100 and 1:250 for SA-APC. The kinase reaction is terminated by the addition of 50 μL quench buffer containing the detection reagents. The detection is allowed to proceed for 1 hr at room temperature. Detection of the phosphorlated substrate in the absence and presence of inhibitors is measured in the TR-FRET instrument, Analyst HT (Molecular Probes, Sunnyvale, Calif.) and the condition for measurements are set up using CriterionHost Release 2.0 (Molecular Probes, Sunnyvale, Calif.). The settings used are a follows: excitation 360 nm, emission 665-7.5 nm, beam splitter 350 nm 50/50, flash 100 pulses, delay 60 us, integration 400 us, z-height 2 mm. Inhibition of SYK-tyrosine kinase activity is calculated as the maximum response observed in the presence of inhibitor, compared to that in the absence of inhibitor. IC50s were derived by non-linear regression analysis.

SMILES	IC50 [nM]
CC[C@@H](Nc1cnc(C(N)=O)c(Nc2cnc3cccnc3c2)c1)C(N)=O [Example 54, (R)-3-(1,5-naphthyridin-3-ylamino)-5-(1-amino-1-oxobutan-2-ylamino)picolinamide]	100 to 1000
CCc1cc(Nc2cc(N[C@@H]3CCCC[C@@H]3N)cnc2C(N)=O)on1 [Example 37, 5-((1R,2S)-2-aminocyclohexylamino)-3-(3-ethylisoxazol-5-ylamino)picolinamide]	10 to 100
NC(=O)c1ncc(N[C@@H]2CCCC[C@@H]2N)cc1Nc1cccc(-c2ncco2)c1 [Example 55, 5-(((1R,2S)-2-aminocyclohexyl)amino)-3-((3-(oxazol-2-yl)phenyl)amino)picolinamide]	10 to 100
COC[C@@H](Nc1cnc(C(N)=O)c(Nc2cc(C)ns2)c1)C(N)=O [Example 48, (R)-5-(1-amino-3-methoxy-1-oxopropan-2-ylamino)-3-(3-methylisothiazol-5-ylamino)picolinamide]	10 to 100
CC(C)(C)[C@@H](Nc1cnc(C(N)=O)c(Nc2cc(C3CC3)ns2)c1)C(N)=O [Example 39, (R)-5-(1-amino-3,3-dimethyl-1-oxobutan-2-ylamino)-3-(3-cyclopropylisothiazol-5-ylamino)picolinamide]	10 to 100
NC(=O)c1ncc(N[C@@H]2CCCC[C@@H]2N)cc1Nc1cnsc1 [Example 28, 5-((1R,2S)-2-aminocyclohexylamino)-3-(isothiazol-4-ylamino)picolinamide]	100 to 1000
CC(C)[C@@H](Nc1cnc(C(N)=O)c(Nc2cc(C3CC3)no2)c1)C(N)=O [Example 35, (R)-5-(1-amino-3-methyl-1-oxobutan-2-ylamino)-3-(3-cyclopropylisoxazol-5-ylamino)picolinamide]	10 to 100
CC(C)c1cc(Nc2cc(N[C@@H]3CCCC[C@@H]3N)cnc2C(N)=O)on1 [Example 36, 5-((1R,2S)-2-aminocyclohexylamino)-3-(3-isopropylisoxazol-5-ylamino)picolinamide]	10 to 100
CCc1cc(Nc2cc(N[C@@H](C(N)=O)C(C)C)cnc2C(N)=O)sn1 [Example 33, (R)-5-(1-amino-3-methyl-1-oxobutan-2-ylamino)-3-(3-ethylisothiazol-5-ylamino)picolinamide]	10 to 100
Cc1cc(Nc2cc(N[C@H](CC3CCCCC3)C(N)=O)cnc2C(N)=O)sn1 [Example 18, (R)-5-(1-amino-3-cyclohexyl-1-oxopropan-2-ylamino)-3-(3-methylisothiazol-5-ylamino)picolinamide]	10 to 100
Cc1cc(Nc2cc(N[C@@H]3CCCC(F)(F)[C@@H]3N)cnc2C(N)=O)sn1 [Example 2, 5-((1R,2R)-2-amino-3,3-difluorocyclohexylamino)-3-(3-methylisothiazol-5-ylamino)picolinamide]	10 to 100
Cc1cc(Nc2cc(N[C@H](C)C(N)=O)cnc2C(N)=O)sn1 [Example 43, (R)-5-(1-amino-1-oxopropan-2-ylamino)-3-(3-methylisothiazol-5-ylamino)picolinamide]	10 to 100
NC(=O)c1ncc(N[C@@H]2CCCC[C@@H]2N)cc1Nc1cncs1 [Example 56, 5-(((1R,2S)-2-aminocyclohexyl)amino)-3-(thiazol-5-ylamino)picolinamide]	> 1000
NC(=O)c1ncc(N[C@@H]2CCCC(F)(F)[C@@H]2N)cc1Nc1cc(-c2ccccc2)no1 [Example 9, 5-((1R,2R)-2-amino-3,3-difluorocyclohexylamino)-3-(3-phenylisoxazol-5-ylamino)picolinamide]	100 to 1000

Other lines, results leading:

IC50 [nM]	SMILES
1 to 10	Cc1cc(Nc2cc(N[C@@H]3CCCC[C@@H]3N)cnc2C(N)=O)sn1 [Example 4, 5-((1R,2S)-2-aminocyclohexylamino)-3-(3-methylisothiazol-5-ylamino)picolinamide]
1 to 10	Cc1cc(Nc2cc(N[C@H](CC(C)C)C(N)=O)cnc2C(N)=O)sn1 [Example 1, (R)-5-(1-amino-4-methyl-1-oxopentan-2-ylamino)-3-(3-methylisothiazol-5-ylamino)picolinamide]
1 to 10	NC(=O)c1ncc(N[C@@H]2CCCC[C@@H]2N)cc1Nc1cc(-c2ccncc2)no1 [Example 49, 5-((1R,2S)-2-aminocyclohexylamino)-3-(3-(pyridin-4-yl)isoxazol-5-ylamino)picolinamide]
1 to 10	NC(=O)c1ncc(N[C@@H]2CCCC[C@@H]2N)cc1Nc1cc(-c2ccccc2)no1 [Example 8, 5-((1R,2S)-2-aminocyclohexylamino)-3-(3-phenylisoxazol-5-ylamino)picolinamide]
1 to 10	Cc1cc(Nc2cc(NC3(C(N)=O)CC3)cnc2C(N)=O)sn1 [Example 32, 5-(1-carbamoylcyclopropylamino)-3-(3-methylisothiazol-5-ylamino)picolinamide]
1 to 10	Cc1cc(Nc2cc(N[C@@H]3CCOC[C@@H]3N)cnc2C(N)=O)sn1 [Example 23, 5-((3R,4R)-3-aminotetrahydro-2H-pyran-4-ylamino)-3-(3-methylisothiazol-5-ylamino)picolinamide]
